Experimental findings from PubChem BioAssay AID330 (DTP/NCI, 2004) are described below.

Toxic doses and inconclusive results are not listed.

The assay relates to P388 leukemia ip, CD2F1 mice, survival T/C. Kind of assay: NCI In Vivo Anticancer Drug Screen. Data for tumor model P388 Leukemia (intraperitoneal) in CD2F1 (CDF1) mice. The following applies: endpoint: median survival time, higher = longer survival. In outline: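 Mice carrying the transplanted tumor received test compound or vehicle. Survival was recorded in each group, and the value is the treated-group measurement divided by that of the vehicle-treated control group.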

Setting [1] is: dose: 25.0 mg/kg/injection, schedule: Q01DX009 (ip), vehicle: saline with Tween-80.
Setting [2] is: dose: 50.0 mg/kg/injection, schedule: Q01DX009 (ip), vehicle: saline with Tween-80.
[3] abbreviates: dose: 100.0 mg/kg/injection, schedule: Q01DX009 (ip), vehicle: saline with Tween-80.
Setting [4] is: dose: 50.0 mg/kg/injection, schedule: Q01DX005 (ip), vehicle: saline with Tween-80.
Where [5] appears, read: dose: 100.0 mg/kg/injection, schedule: Q01DX005 (ip), vehicle: saline with Tween-80.
Setting [6] is: dose: 200.0 mg/kg/injection, schedule: Q01DX005 (ip), vehicle: saline with Tween-80.
Setting [7] is: dose: 50.0 mg/kg/injection, schedule: Q01DX005 (ip), vehicle: saline.
Setting [8] is: dose: 100.0 mg/kg/injection, schedule: Q01DX005 (ip), vehicle: saline.
The mark [9] stands for this setting: dose: 200.0 mg/kg/injection, schedule: Q01DX005 (ip), vehicle: saline.
Setting [10] is: dose: 60.0 mg/kg/injection, schedule: Q01DX005 (ip), vehicle: saline with Tween-80.
The mark [11] stands for this setting: dose: 120.0 mg/kg/injection, schedule: Q01DX005 (ip), vehicle: saline with Tween-80.
Where [12] appears, read: dose: 12.5 mg/kg/injection, schedule: Q01DX009 (ip), vehicle: saline with Tween-80.
[13] abbreviates: dose: 240.0 mg/kg/injection, schedule: Q01DX005 (ip), vehicle: saline with Tween-80.

In the case of `N/C(=N\O)N(c1ccccc1)c1ccccc1`, the T/C is 97 % of control under setting [1], 98 % of control under setting [2] and 99 % of control under setting [3].

As for `Cc1cc(C)c(C#N)c(Sc2nc(C)c([N+](=O)[O-])c(C)c2C#N)n1`, the T/C was 96 % of control under setting [4], 100 % of control under setting [5] and 102 % of control under setting [6].

For the compound `O=C(Nc1ccc(CSc2ccc(Cl)cc2)o1)N1CCOCC1`, the T/C under setting [4] is 107 % of control, the T/C under setting [5] was 99 % of control and the T/C under setting [6] is 98 % of control.

On to `CS(=O)(=O)OCC#CCOS(C)(=O)=O`, for which the T/C (dose: 1.56 mg/kg/injection, schedule: Q01DX009 (ip), vehicle: Klucel (hydroxypropylcellulose) (HPC)) is 109 % of control and the T/C (dose: 3.12 mg/kg/injection, schedule: Q01DX009 (ip), vehicle: Klucel (hydroxypropylcellulose) (HPC)) was 120 % of control.

As for `Cn1nc(C(=O)O)c(=O)[nH]c1=O`, the T/C is 98 % of control under setting [7], 95 % of control under setting [8] and 98 % of control under setting [9].

For the compound `CSc1nc2c(Cl)ncnc2s1`, the T/C under setting [10] is 96 % of control and the T/C under setting [11] was 96 % of control.

For the compound `C=CC[P+](Cc1cccc(C)c1)(c1ccccc1)c1ccccc1`, the T/C (dose: 0.78 mg/kg/injection, schedule: Q01DX009 (ip), vehicle: saline) was 99 % of control; the T/C (dose: 1.56 mg/kg/injection, schedule: Q01DX009 (ip), vehicle: saline) was 111 % of control; the T/C (dose: 3.13 mg/kg/injection, schedule: Q01DX009 (ip), vehicle: saline) is 104 % of control.

As for `c1ccc(O[Si](Oc2ccccc2)(Oc2ccccc2)Oc2ccccc2)cc1`, the T/C by setting is: (dose: 25.0 mg/kg/injection, schedule: Q01DX009 (ip), vehicle: other) 86 % of control; (dose: 50.0 mg/kg/injection, schedule: Q01DX009 (ip), vehicle: other) 96 % of control; (dose: 100.0 mg/kg/injection, schedule: Q01DX009 (ip), vehicle: other) 99 % of control.

Regarding `CN1CC(F)OC(F)(F)C1` (stereo not given), the T/C is 102 % of control under setting [7], 100 % of control under setting [8] and 100 % of control under setting [9].

Regarding `O=C(CCl)NC(O)C(Cl)(Cl)Cl` (stereo not given), the T/C is 101 % of control under setting [4], 99 % of control under setting [5] and 103 % of control under setting [6].

In the case of `Nc1nc(N)c2cnnn2n1`, the T/C reads like this: under setting [4], 95 % of control; under setting [5], 102 % of control; under setting [6], 110 % of control.

As for `CCC(CC)c1ccccn1`, the T/C is, setting by setting: (dose: 100.0 mg/kg/injection, schedule: Q01DX009 (ip), vehicle: saline) 101 % of control; (dose: 100.0 mg/kg/injection, schedule: Q04DX003 (ip), vehicle: saline) 122 % of control; (dose: 200.0 mg/kg/injection, schedule: Q01DX009 (ip), vehicle: saline) 105 % of control.

For the compound `Fc1cccc(NC(=S)SCc2ccc(Cl)c(Cl)c2)c1`, the T/C by setting is: (dose: 50.0 mg/kg/injection, schedule: Q01DX009 (ip), vehicle: suspension in saline) 99 % of control; (dose: 100.0 mg/kg/injection, schedule: Q01DX009 (ip), vehicle: suspension in saline) 93 % of control; (dose: 200.0 mg/kg/injection, schedule: Q01DX009 (ip), vehicle: suspension in saline) 109 % of control.

For `S=C(Oc1ccccc1)Oc1ccccc1`, the T/C is, setting by setting: (dose: 6.25 mg/kg/injection, schedule: Q01DX009 (ip), vehicle: saline with Tween-80) 95 % of control; under setting [12], 91 % of control; under setting [3], 93 % of control.

For the compound `CCOC(=O)C(=CNc1cc(OC)cc2cccnc12)C(=O)OCC`, the T/C is 96 % of control (dose: 50.0 mg/kg/injection, schedule: Q01DX005 (ip), vehicle: Klucel (hydroxypropylcellulose) (HPC)); 88 % of control (dose: 100.0 mg/kg/injection, schedule: Q01DX005 (ip), vehicle: Klucel (hydroxypropylcellulose) (HPC)); 88 % of control (dose: 200.0 mg/kg/injection, schedule: Q01DX005 (ip), vehicle: Klucel (hydroxypropylcellulose) (HPC)).

For the compound `COC(=O)c1nn2c(=O)n(C(C)=O)c3ccccc3c2c1C(=O)OC`, the T/C under setting [10] was 108 % of control, the T/C under setting [11] was 109 % of control and the T/C under setting [13] was 108 % of control.

Consider `CC(C)=CCC(OC(=O)C=C(C)C)c1cc(O)c2c(O)ccc(O)c2c1O.[Ni]` (stereo not given), for which the T/C is 111 % of control (dose: 100.0 mg/kg/injection, schedule: Q04DX002 (ip), vehicle: saline with Tween-80); 105 % of control (dose: 200.0 mg/kg/injection, schedule: Q04DX002 (ip), vehicle: saline with Tween-80); 114 % of control (dose: 400.0 mg/kg/injection, schedule: Q04DX002 (ip), vehicle: saline with Tween-80).

`O=C1c2ccccc2C(=O)c2cscc21`: the T/C is 100 % of control under setting [12], 97 % of control under setting [1], 97 % of control under setting [2] and 98 % of control under setting [3].

For the compound `Nc1cc2c(c[n+](CCO)c3ccccc23)c2ccccc12`, the T/C is 118 % of control (dose: 12.5 mg/kg/injection, schedule: Q04DX003 (ip), vehicle: other); 111 % of control (dose: 25.0 mg/kg/injection, schedule: Q04DX003 (ip), vehicle: other); 118 % of control (dose: 50.0 mg/kg/injection, schedule: Q04DX003 (ip), vehicle: other); 102 % of control (dose: 100.0 mg/kg/injection, schedule: Q04DX003 (ip), vehicle: other).

Regarding `COc1ccc2c(c1O)-c1cccc3c1C(C2)N(CCOCCCl)CC3` (stereo not given), the T/C by setting is: (dose: 12.5 mg/kg/injection, schedule: Q04DX003 (ip), vehicle: water) 99 % of control; (dose: 25.0 mg/kg/injection, schedule: Q04DX003 (ip), vehicle: water) 107 % of control; (dose: 50.0 mg/kg/injection, schedule: Q04DX003 (ip), vehicle: water) 101 % of control; (dose: 100.0 mg/kg/injection, schedule: Q04DX003 (ip), vehicle: water) 104 % of control.

Take `Cn1c(=S)[nH]c2sc3c(c2c1=O)CCCCC3`: the T/C runs as follows: under setting [10], 101 % of control; under setting [11], 97 % of control; under setting [13], 90 % of control.

As for `OC(C(=S)N1CCOCC1)(c1ccccc1)c1ccccc1`, the T/C (dose: 50.0 mg/kg/injection, schedule: Q01DX009 (ip), vehicle: Klucel (hydroxypropylcellulose) (HPC)) is 105 % of control; the T/C (dose: 100.0 mg/kg/injection, schedule: Q01DX009 (ip), vehicle: Klucel (hydroxypropylcellulose) (HPC)) is 103 % of control; the T/C (dose: 200.0 mg/kg/injection, schedule: Q01DX009 (ip), vehicle: Klucel (hydroxypropylcellulose) (HPC)) is 98 % of control.

As for `C[C@H]1CC(=O)SC1=O`, the T/C (dose: 25.0 mg/kg/injection, schedule: Q04DX002 (ip), vehicle: saline) is 100 % of control and the T/C (dose: 50.0 mg/kg/injection, schedule: Q04DX002 (ip), vehicle: saline) is 93 % of control.

`CCOC(=O)Nc1ccc(C2OCCS2)cc1` (stereo not given): the T/C under setting [4] is 86 % of control and the T/C under setting [6] is 90 % of control.

Consider `Nc1nc(SCC(=O)O)[nH]c(=O)c1NS(=O)(=O)c1cccc([N+](=O)[O-])c1`, for which the T/C runs as follows: (dose: 60.0 mg/kg/injection, schedule: Q01DX005 (ip), vehicle: Klucel (hydroxypropylcellulose) (HPC)) 96 % of control; (dose: 120.0 mg/kg/injection, schedule: Q01DX005 (ip), vehicle: Klucel (hydroxypropylcellulose) (HPC)) 93 % of control; (dose: 240.0 mg/kg/injection, schedule: Q01DX005 (ip), vehicle: Klucel (hydroxypropylcellulose) (HPC)) 93 % of control.

In the case of `C=C1C(=O)OC2/C=C(\C)C(OC(C)=O)C3OC3C(C)(O)CC(OC(=O)/C(C)=C/C)C12` (stereo not given), the T/C reads like this: (dose: 10.0 mg/kg/injection, schedule: Q01DX009 (ip), vehicle: saline with Tween-80) 99 % of control; (dose: 20.0 mg/kg/injection, schedule: Q01DX009 (ip), vehicle: saline with Tween-80) 104 % of control; (dose: 40.0 mg/kg/injection, schedule: Q01DX009 (ip), vehicle: saline with Tween-80) 107 % of control.

Take `Cn1c(=O)[nH]c(=O)c2nc(-c3ccc(Cl)c(Cl)c3)cnc21`: the T/C by setting is: under setting [2], 104 % of control; under setting [3], 101 % of control; (dose: 200.0 mg/kg/injection, schedule: Q01DX009 (ip), vehicle: saline with Tween-80) 99 % of control.
